Laboratory results as given in US10196374B2 (AstraZeneca AB, priority 2014, dated 2019).

How the values were obtained:
Assay type in all cases: cell-based
[1] = molecular target: T1, human glucocorticoid receptor (GR) (Homo sapiens (Human), UniProt P04150); test: GRE Agonist Assay (ChagoK1 18:7:2 s4/GRE MMTV-GRE-LacZ reporter cell line); details: for Emax at 1 µM: ChaGo-K-1, relative to full agonist effect of dexamethasone, read-out: TA agonist Observed max Effect at 1 μM (%); for TA agonist pEC50: transactivation in agonist mode, ChagoK1 GRE-LacZ reporter cells, 24 hours
T1 sequence (P04150 whole entry): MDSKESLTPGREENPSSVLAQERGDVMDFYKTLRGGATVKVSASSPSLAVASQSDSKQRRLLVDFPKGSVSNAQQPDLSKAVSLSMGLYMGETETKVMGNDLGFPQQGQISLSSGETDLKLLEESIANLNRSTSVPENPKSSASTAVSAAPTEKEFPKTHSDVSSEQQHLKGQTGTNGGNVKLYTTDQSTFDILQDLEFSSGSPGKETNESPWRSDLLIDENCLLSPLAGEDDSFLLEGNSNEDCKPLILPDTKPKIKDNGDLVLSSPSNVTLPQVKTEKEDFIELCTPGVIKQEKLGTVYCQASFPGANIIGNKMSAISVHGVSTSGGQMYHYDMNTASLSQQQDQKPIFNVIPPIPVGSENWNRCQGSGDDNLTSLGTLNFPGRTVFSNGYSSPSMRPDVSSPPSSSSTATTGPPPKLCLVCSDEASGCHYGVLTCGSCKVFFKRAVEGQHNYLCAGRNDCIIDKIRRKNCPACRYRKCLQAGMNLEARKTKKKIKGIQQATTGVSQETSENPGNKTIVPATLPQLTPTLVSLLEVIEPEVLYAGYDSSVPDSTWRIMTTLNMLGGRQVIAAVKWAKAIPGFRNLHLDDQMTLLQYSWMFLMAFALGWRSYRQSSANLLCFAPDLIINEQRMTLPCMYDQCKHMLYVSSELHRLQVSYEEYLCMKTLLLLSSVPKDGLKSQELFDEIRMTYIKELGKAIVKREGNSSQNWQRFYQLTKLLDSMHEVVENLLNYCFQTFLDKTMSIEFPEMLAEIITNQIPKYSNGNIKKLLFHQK
Text: GRE Agonist Assay A reporter cell line (ChagoK1 18:7:2 s4/GRE) was established by stable transfection of the human bronchogenic carcinoma cell line, ChaGo K1 (ATCC: HTB 168) with a MMTV-GRE-LacZ reporter construct. The generated cell line allows for identification of compounds showing agonist activity at the human glucocorticoid receptor (GR) via induction of LacZ gene expression. Ligand-activated GR binds to the Glucocorticoid Response Element (GRE) in the promoter of the LacZ gene and transcription is initiated. The resulting beta-galactosidase activity is measured through a colour reaction (change in absorbance). Cryo-preserved ChagoK1 18:7:2 s4/GRE cells were suspended in RPMI medium with 10% FBS, 1% NEAA and 1% sodium pyruvate, and seeded as 50000 cells/200 ul/well in 96-well plates and cultured at 37° C. with 5% CO2 and 95% humidity for 24 hours. 1 μl compound was added at different concentrations to the cells and incubated for another 24 hours. […] The reaction was then terminated by addition of 100 μl stop solution (300 mM glycine, 15 mM EDTA, pH 11.3, adjusted with NaOH). […]) Where A=min Y, B=max Y, C=log EC50 and D=Slope factor

[2] = molecular target: T1, human glucocorticoid receptor (GR); test: GRE Antagonist Assay (ChagoK1 18:7:2 s4/GRE reporter cells pre-stimulated with dexamethasone); details: for Emax at 1 µM: ChaGo-K-1, relative to full antagonist effect of Mifepristone (RU486), read-out: TA antagonist Observed max Effect at 1 μM (%); for TA antagonist pIC50: transactivation in antagonist mode, pre-stimulated with dexamethasone 70 nM
Text: GRE Antagonist Assay A reporter cell line (ChagoK1 18:7:2 s4/GRE) was established by stable transfection of the human bronchogenic carcinoma celline, ChaGo K1 (ATCC: HTB 168) with a MMTV-GRE-LacZ reporter construct. The generated cell line allows for identification of compounds showing antagonist activity at the human glucocorticoid receptor (GR) via reduction of LacZ gene expression. Dexamethasone-activated GR binds to the Glucocorticoid Response Element (GRE) in the promoter of the LacZ gene and transcription is initiated. Antagonistic properties of compounds are assessed as beta-galactosidase intensity reduction from pre-stimulation with dexamethasone through a colour reaction (change in absorbance). Cryo-preserved ChagoK1 18:7:2 s4/GRE cells were suspended in RPMI medium with 10% FBS, 1% NEAA and 1% sodium pyruvate, and seeded as 50000 cells/200 ul/well in 96-well plates and cultured at 37° C. with 5% CO2 and 95% humidity for 24 hr. […] The reaction was then terminated by addition of 100 μl stop solution (300 mM glycine, 15 mM EDTA, pH 11.3, adjusted with NaOH). The plates were measured at 420 nm for absorbance in a SpectraMax reader (Molecular Device). […]) Where A=min Y, B=max Y, C=log IC50 and D=Slope factor

[3] = tested on: release of TNFα from whole blood stimulated with LPS; test: In Vitro Human Whole Blood: inhibition of TNFα release from whole blood stimulated with LPS; details: LPS 30 μg/mL, 18 hr, read-out: TNFα pIC50 (converted)
Description: In Vitro Human Whole Blood
Venous blood from human donors was collected and anti-coagulated with sodium heparin and transferred to a sterile polystyrene round bottomed plate (Corning) at 190 μL per well.
Control wells received 1 μL DMSO only and the final DMSO concentration in all wells was 0.5%.
10 μL was added to each well to give a final LPS concentration of 30 μg/mL. Unstimulated controls received PBS only at 10 μL/well. The samples were, again, gently mixed, and the plates incubated overnight for 18 hr. Following incubation, the blood was centrifuged at 700×g for 5 min, and the plasma removed and transferred to freeze at −20° C. before assay for TNFα release.
TNFα protein levels were determined using an AlphaLISA hTNFa kit (Perkin Elmer) according to the manufacturer's instructions. Briefly, the samples were allowed to return to room temperature and centrifuged at 1500×g for 5 min. Samples were diluted 1/5 (5 μL sample in 20 μL AlphaLISA buffer). At the same time, a standard curve of TNFα was prepared by serial 1/3 dilutions from a stock solution (5000-2 pg/mL). 5 μL sample/standard curve were transferred to a 384-well Optiplate™, and to this was added 20 μL anti-humanTNFa acceptor beads/biotinylated antibody mix. The plate was incubated at room temperature for 60 min. After this incubation, 25 μL streptavidin donor beads were added, and the plate was incubated for a further 60 min in the dark at room temperature. […] TNFα in the samples was determined by extrapolation from the standard curve and expressed as pg/mL.
Percent inhibition was plotted against concentration, and a curve graphed using a 4-parameter curve fit (Xlfit 4.1) to determine the pIC50.

[4] = tested on: tyrosine aminotransferase (TAT) mRNA expression in human hepatocytes; test: Tyrosine Aminotransferase (TAT) mRNA Expression In Vitro Assay in human primary hepatocytes; details: 18 hr, fold change vs DMSO control
Description: Tyrosine Aminotransferase (“TAT”) mRNA Expression In Vitro Assay
The impact of test compounds on hyperglycemic events were assessed by looking at changes in mRNA expression of the gene encoding tyrosine aminotransferase (TAT), which is under direct regulation of the glucocorticoid receptor in human hepatocytes.
Human cryopreserved primary hepatocytes (BioreclamationIVT, M00995-P lot EPB) were plated to 24-well collagen I-coated plates (Becton Dickinson, 354408). Cells were allowed to attach for 4 hr before being challenged with test compounds overnight (18 hr). Cells were harvested and total RNA isolated using RNeasy Plus Mini Kit (Qiagen, 74136) followed by cDNA synthesis using High Capacity cDNA reverse transcription kit (Applied Biosystems, 4368813). Real-time RT PCR was performed on an Applied Biosystems 7500 PCR cycler, using Taqman primers for TAT (Life technologies, Hs00356930_m1) and the reference gene hypoxanthine phosphoribosyltransferase 1 (Life technologies, Hs99999909_m1).
Human cryopreserved primary hepatocytes were transferred in to pre-warmed (37° C.) plating medium (BioreclamationIVT, Z990003) and diluted to 0.7×10^6 viable cells/mL. 500 µL of the cell suspension was plated to each well of a collagen I coated 24-well plate and cells were allowed to sediment and attach at 37° C. for 4 hr. After incubation, the media was gently discarded and exchanged for insulin, glucose, glutamine, pyruvate free media (BioreclamationIVT, S00304), containing compounds of interest, prednisolone at 1 μM, dissolved in DMSO (final DMSO concentration 0.01%), or DMSO alone as control. The plates were then incubated at 37° C. for an additional 18 hr. Media was discarded, and total RNA isolation (Qiagen) and cDNA synthesis (Applied Biosystems) performed according to the manufactures protocol. Real-time RT PCR was carried out using TaqMan reagents (Life technologies) on the 7500 PCR cycler, and Ct-values for TAT gene expression was normalised to the control gene and expressed as fold change compared to DMSO control using the 2^−ΔΔCt method.

SMILES | Emax at 1 µM [1] [%] | TA agonist pEC50 [1] | Emax at 1 µM [2] [%] | TA antagonist pIC50 [2] | IC50 [3] [nM] | Fold Change Tyrosine Aminotransferase Gene Expression Relative to Control (1 μM) [4]
CC(C)[C@H](NC(=O)C(C)(F)F)[C@H](Oc1ccc2c(cnn2-c2ccc(=O)n(C)c2)c1)c1cc(F)cc(F)c1 [Example 3, N-[(1R,2S)-1-(3,5-difluorophenyl)-3-methyl-1-{[1-(1-methyl-6-oxo-1,6-dihydropyridin-3-yl)-1H-indazol-5-yl]oxy}butan-2-yl]-2,2-difluoropropanamide] | 44 | 8.6 | 53 | 7.6 | 100 | 1.5 (1.4-1.55, n = 2)
CC(C)[C@H](NC(=O)C(C)(F)F)[C@H](Oc1ccc2c(cnn2-c2ccc(=O)n(C)c2)c1)c1ccccc1 [Example 1, 2,2-difluoro-N-[(1R,2S)-3-methyl-1-{[1-(1-methyl-6-oxo-1,6-dihydropyridin-3-yl)-1H-indazol-5-yl]oxy}-1-phenylbutan-2-yl]propanamide] | 36 | 8.0 | 56 | 6.8 | 631 | 1.0 (0.8-1.4, n = 8)
CC(C)[C@H](NC(=O)C(F)(F)F)[C@H](Oc1ccc2c(cnn2-c2ccc(=O)n(C)c2)c1)c1cccc(Cl)c1 [Example 6, N-[(1R,2S)-1-(3-chlorophenyl)-3-methyl-1-{[1-(1-methyl-6-oxo-1,6-dihydropyridin-3-yl)-1H-indazol-5-yl]oxy}butan-2-yl]-2,2,2-trifluoroacetamide] | 24 | 8.6 | 67 | 7.3 | 398 | 0.9 (n = 1)
C[C@]12C=CC(=O)C=C1CC[C@@H]1[C@@H]2[C@@H](O)C[C@@]2(C)[C@H]1CC[C@]2(O)C(=O)CO [Prednisolone, prednisolone, reference compound] | – | – | – | – | 251 | 2.8 (1.3-5.3, n = 10)
CC(C)[C@H](NC(=O)C(F)(F)F)[C@H](Oc1ccc2c(cnn2-c2ccc(=O)n(C)c2)c1)c1ccc(Cl)cc1 [Example 13, N-[(1R,2S)-1-(4-chlorophenyl)-3-methyl-1-{[1-(1-methyl-6-oxo-1,6-dihydropyridin-3-yl)-1H-indazol-5-yl]oxy}butan-2-yl]-2,2,2-trifluoroacetamide] | 28 | 8.3 | 72 | 6.9 | – | –
CC(C)[C@H](NC(=O)C(C)(F)F)[C@H](Oc1ccc2c(cnn2-c2ccc(=O)n(C)c2)c1)c1cccc(Cl)c1 [Example 5, N-[(1R,2S)-1-(3-chlorophenyl)-3-methyl-1-{[1-(1-methyl-6-oxo-1,6-dihydropyridin-3-yl)-1H-indazol-5-yl]oxy}butan-2-yl]-2,2-difluoropropanamide] | 28 | 8.6 | 72 | 6.7 | – | –
CC(C)[C@H](NC(=O)C(F)(F)F)[C@H](Oc1ccc2c(cnn2-c2ccc(=O)n(C)c2)c1)c1cc(F)cc(Cl)c1 [Example 18, N-[(1R,2S)-1-[3-chloro-5-fluorophenyl]-3-methyl-1-{[1-(1-methyl-6-oxo-1,6-dihydropyridin-3-yl)-1H-indazol-5-yl]oxy}butan-2-yl]-2,2,2-trifluoroacetamide] | 32 | 8.8 | 61 | 7.6 | – | –
